Measured values taken from patent US4657924A, “Nafazatrom as a lipoxygenase inhibitor” (priority 1983, dated 1987).

Assays:
[1] = tested on: v.jugularis, a.carotis and a.femoralis; conditions: Seuter et al., 1979; cited from earlier work
[2] = tested on: coronary arteries of dogs; conditions: cited from earlier work
[3] = tested on: ischaemia-induced ECG changes; experiment: Animal experiments: ECG changes in ischaemia; type: in vivo
15-lipoxygenase = 15-lipoxygenase inhibition; type: biochemical; conditions: concentrations of >10 μg/ml
[4] = tested on: 15-hydroxyprostaglandin dehydrogenase; conditions: Wong and McGiff, 1982; cited from earlier work
[5] = tested on: Lipoxygenase (leukotriene B4 biosynthesis in human PMN leucocytes); experiment: Lipoxygenase inhibition: inhibition of leukotriene B4 biosynthesis in human PMN leucocytes; type: cell-based
Description: The human PMN leucocytes (95%) used in the present example were obtained from heparinized complete blood by dextran sedimentation and subsequent density gradient separation (Ficoll-Paque) (compare A. Boyum, Scand. J. Immunol., 5, Suppl. 5, 9, 1976).
2×10^7 cells/ml were suspended in Dulbecco phosphate buffer containing Ca^2+ and were incubated with radioactively labelled arachidonic acid and the calcium ionophor A 23187 in the presence or absence of lipoxygenase inhibitor. After 15 minutes, the labelled lipoxygenase products were extracted from the acidified incubation medium and were separated by thin layer chromatography using a mobile phase mixture suitable for the leukotrienes (5-HETE-LTB4) (compare B. Jakschik et al., Biochem.Biophys.Res.Commun., 102, 624, 1981).
The distribution of the activity amongst the various metabolites was measured by a thin layer scanner. It is a measure of the lipoxygenase-inhibiting action of a test substance at a certain concentration.
The lipoxygenase metabolites were also additionally determined independently by means of high pressure liquid chromatography. This method enables the endogenous arachidonic acid metabolism to be studied with the aid of UV detection of the leukotrienes. In this method, the cells were treated as described above, with the exception that no radioactively labelled arachidonic acid was added exogenously. The high pressure liquid chromatography was carried out on Lichrosorb RP-18 (5 μm) columns. The mobile phase was methanol/water/glacial acetic acid 69/31/0.01. The flow rate was 1 ml/minute. Leukotriene B4 was determined at 232 nm, in each case by means of UV absorption.

guinea pig lung = experiment: Inhibition of methacholine-induced bronchoconstriction in perfused guinea pig lung; conditions: 10^-4 g/ml; 0.05 μg/ml of methacholine
Description: Nafazatrom can moreover be used for the therapy of pulmonary hypertension, pulmonary embolisms and pulmonary oedemas. […] In this organ, nafazatrom inhibits (by the method of F. P. Luduena et al., Arch. Int. Pharmacodyn. 111, 392, 1957) methacholine-induced bronchoconstriction (see Example 5).
The guinea pig lung was perfused with a physiological buffer solution (Tyrode's solution) containing 0.05 μg/ml of methacholine.

cyclooxygenase = experiment: Cyclooxygenase inhibition; type: biochemical; conditions: on administration of nafazatrom
leucocytes = experiment: Leucocyte stickiness in hamster cheek pouch venules; type: in vivo, Syrian golden hamster; conditions: intraarterial, 1.0 mg/kg
Description: The number of leucocytes counted will be greater, the lower the stickiness of the cells. Male Syrian golden hamsters (80-100 g) were anaesthetized with Nembutal (i.p.; 60 mg/kg). After insertion of a PE 10 catheter into the a.femoralis, the animal was laid on a Duling dissecting platform (MVR 5, 423 (1973)) and the right check pouch was withdrawn by inserting a Q-Tip. It was carefully drawn into the envisaged part of the platform, stretched and fixed. From the start of the dissection, 5 ml/minute of Superfusat flowed over the prepared cheek pouch. The temperature of the solution is 36° C. While treating the vessels with care, the upper layer tissue was separated longitudinally and folded back to the side. Under about 200-fold magnification, an area of about 1 cm^2 of connective tissue was carefully exposed. The animal was placed on the object stand of a microscope, together with the dissecting platform. A thermocouple was inserted into the left cheek pouch. The body temperature of the animal was thus monitored and kept at ±0.3° C. with the aid of an IR lamp (250 watt). The leucocyte stickiness was measured at about 500-fold magnification. A venule (30-40 μm .phi.) was selected in the exposed area. The number of leucocytes per unit time (minutes) which migrate past a certain section of this vessel was counted.

[6] = Antiasthmatic, inflammation-inhibiting and gastro-protective action; conditions: in words

Compound: CC1=NN(CCOc2ccc3ccccc3c2)C(=O)C1 [nafazatrom, 3-methyl-1-[2-(2-naphthyloxy)-ethyl]-2-pyrazolin-5-one]
- antithrombotic effectiveness [1]: effective arterially and venously
- antithrombotic effectiveness [2]: also effective in the coronary arteries of dogs
- R-wave in the ECG of the peripheral extremities ([3]; in vivo): increases less sharply and re-forms more rapidly
- ST intervals compared with the controls ([3]; in vivo): changed less than in the controls
- ischaemia-induced rise in the ST zone ([3]; indication of infarction): reduces the ischaemia-induced rise in the ST zone
- inhibition of 15-lipoxygenase (15-lipoxygenase): not inhibited or is even stimulated
- blocking of 15-hydroxyprostaglandin dehydrogenase [4]: blocks 15-hydroxyprostaglandin dehydrogenase
- inhibition at 1 µg/mL ([5]; Homo sapiens, Leucocyte, 1 ug/ml, read-out: Inhibition in % in comparison with the control (leukotriene B4 biosynthesis)): 30%
- inhibition at 3 µg/mL ([5]; Homo sapiens, Leucocyte, 3 ug/ml, read-out: Inhibition in % in comparison with the control (leukotriene B4 biosynthesis)): 75%
- inhibition at 5 µg/mL ([5]; Homo sapiens, Leucocyte, 5 ug/ml, read-out: Inhibition in % in comparison with the control (leukotriene B4 biosynthesis)): 90%
- inhibition at 10 µg/mL ([5]; Homo sapiens, Leucocyte, 10 ug/ml, read-out: Inhibition in % in comparison with the control (leukotriene B4 biosynthesis)): 100%
- concentration range of inhibition of LTB4 biosynthesis ([5]; as a function of the concentration): 1 to 10 µg/mL
- inhibition of the rise in perfusion pressure, and hence bronchoconstriction (guinea pig lung): 50%
- inhibition of cyclooxygenase (cyclooxygenase): No such inhibition of cyclooxygenase
- duration of action (leucocytes): about 60 minutes
- increase in the number of leucocytes (leucocytes): 60-100%
- antiasthmatic, inflammation-inhibiting and gastro-protective action [6]: marked antiasthmatic, inflammation-inhibiting and gastro-protective action
